Experimental data taken from patent US8569242B2, “Method of treating degenerative disorders of the nervous system” (The Regents of the University of California, priority 2005, dated 2013).
“Also recorded” adds a separate entry of the source.

Key:
primary microglia = test: Morphometry of microglia activation (Isolectin B4 staining, cell size); type: cell-based, mouse; conditions: for effect on LPS-mediated microglia activation: LPS 1 μg/mL
Protocol: Culture of primary microglia cells. Microglia were isolated from cultures of mixed cortical cells as described (59). In brief, cortices from P1 mice were isolated and digested with trypsin (0.4%) for 20 minutes at 37° C. Cells from 4 pups were plated onto PDL-coated 75 cm2 tissue-culture flasks. The culture medium (DMEM, 10% heat-inactivated FBS, and 1% Pen/Strep) was changed on day 2. After 2-3 weeks in culture, the microglia were removed by the addition of 12 mM lidocaine (Sigma-Aldrich, St. Louis, Mo.) and orbital shaking (180 rpm) for 20 minutes at 37° C. The cells were centrifuged (350×G) and the pellet was resuspended in complete medium and plated onto PDL-coated tissue culture dishes. Microglia cell cultures were >95% pure as determined with three different markers, IsoB4, IBA-1 and CD11b. To immobilize fibrinogen, tissue culture dishes were incubated overnight with 50 μg/mL fibrinogen (Calbiochem, San Diego, Calif.) in 20 mM Tris (pH 7.5) and 0.1 M NaCl at 37° C. for all fibrinogen treatments. To serve as positive controls, LPS (Sigma-Aldrich, St. Louis, Mo.) was added to the media at 1 μg/mL.
Morphometry. Primary microglia were used for all morphologic analysis. Cells were plated on coated fibrinogen or in the presence of LPS for 72 hours. Microglia were fixed with methanol and immunostained with Isolectin B4 (1:300, Sigma-Aldrich, St. Louis, Mo.). Activated microglia were quantificated as those cells larger than 2,000 μm^2. Blocking experiments involved the daily administration of rat anti-CD11b (10 μg/mL, eBioscience, San Diego, Calif.), γ^377-395 peptide (200 μM) or rat IgG (10 μg/mL, Jackson ImmunoResearch Laboratories, West Grove, Pa.). Results were obtained from six separate experiments performed in duplicates. 250 cells per condition were counted for each individual experiment. Statistical calculations were made by using Student's t test.

[1] = tested on: PLP139-151 EAE in SJL/J mice; test: Remitting-relapsing PLP139-151 EAE, intranasal γ^377-395 peptide after first paralytic episode; type: in vivo, mouse
Protocol: Induction of EAE. EAE was induced in 6 week old female SJL/J or C57BL/6 mice by subcutaneous immunization with 150 μg PLP139-151 (HSLGKWLGHPDKF) (SEQ ID NO: 5). American Peptide Company and Azco Pharmchem, San Jose, Calif.) or 50 μg MOG35-55 ([…]) (SEQ ID NO: 6), Sigma-Aldrich, St. Louis, Mo.) in complete Freund's adjuvant (Sigma-Aldrich, St. Louis, Mo.) supplemented with […] heat inactivated mycobacterium tuberculosis H37Ra (Difco Laboratories, Detroit, Mich.). Mice were injected intravenously with 200 ng pertussis toxin (Sigma-Aldrich, St. Louis, Mo.) on days 0 and 2 of the immunization. Mice were scored daily. 0: no symptoms, 1: loss of tail tone, 2: ataxia, 3: hindlimb paralysis, 4: hindlimb and forelimb paralysis, 5: moribund Data are represented as the mean clinical score and are mean±SEM. Statistical calculations were made by using Student's t test.
Intranasal γ^377-395 peptide administration. Fibrinogen γ^377-395 peptide (YSMKETTMKIIPFNRLSIG) (SEQ ID NO: 2), Azco Pharmchem, San Jose, Calif.) was resuspended in 0.9% NaCl at a concentration of 3 mg/mL. Peptides were aliquoted as single doses and stored at […]. Mice were administered 5 μL of peptide or 0.9% NaCI, as a control, in each nare daily using a P10 micropipettor (Gilson, Middleton, Wis.) beginning after the peak of the first paralytic episode.
Histopathology. Histopathologic analysis and quantification of inflammation and demyelination in mouse tissue was performed on cryostat or paraffin sections as described (57). Sections were stained with luxol fast blue and nuclear red. Spinal cord sections were fixed with 2% PFA for 10 minutes at 4° C. and immunostained with a sheep anti-fibrinogen antibody (1:200, US Biological, Swampscott, Mass.), rat anti-CD11b (1:5, Chemicon), von Willebrand Factor (1:1000, Dakocytomation, Glostrup, Denmark), iNOS (polyclonal Chemicon, Temecula, Calif., 1:750), Mac-3 (rat-anti-mouse, Pharmingen, San Diego, Calif., 1:200), CNPase (monoclonal, Sternberger monoclonals, Lutherville, Md., 1:2000). For human MS, paraffin embedded material was obtained from the Archives of the Center for Brain Research, Medical University of Vienna. Double immunofluorescence was performed with antibodies against CD68 and fibrin. Images were collected using an Axioplan 2 Zeiss microscope with an Axiocam HRc camera or were processed for confocal microscopy using Olympus and Zeiss confocal microscopes.
Rotarod behavior test. The rotarod assay was performed on a TSE accelerating Rotarod apparatus (TSE Technical and Scientific Equipment GmbH) as described (58). Rotarod assays were conducted with a 300 second maximum time limit and means were collected for at least three trials. Statistical calculations were made by using Students t test.

splenocytes = test: FACS analysis of splenocytes for peripheral immune cell markers; type: in vivo, mouse; conditions: peptide-treated vs untreated PLP139-151 immunized mice, day 29
Excerpt: FACS Analysis. Primary mouse splenocytes were isolated from control and γ^377-395 peptide-treated mice, immunized with PLP139-151, on day 29 after immunization. Cells were immunostained with antibodies to CD4, CD8, CD11b, CD11c, CD19, B220 (1:100, Biolegend, San Diego, Calif.) and analyzed on a Becton Dickinson FACSCalibur flow cytometer.

Mac-1 = Mac-1 (Homo sapiens, UniProt P11215); conditions: from cited biochemical studies; cited from earlier work
blood coagulation = test: Hematological analyses: plasma clotting time and prothrombin time after intranasal peptide; type: in vivo, mouse; conditions: 30 μg and 90 μg intranasally daily for seven days
Protocol: Hematological Analyses. Citrated plasma was prepared from mice administered intranasally 30 μg or 90 μg of γ^377-395 peptide or saline control daily for seven days. Plasma clotting times were measured by combining 10 μl of citrated plasma with 10 μl of 2 U/ml bovine thrombin (Enzyme Research Laboratories, South Bend, Ind., USA) and 40 mM. CaCl2 in a weigh boatfloating in a 37° C. water bath. Time to clot was determined by mixing with a toothpick. Plasma thrombin times were established as described previously (15). Fibrin polymerization was evaluated by standard turbidity assays using plasma. Briefly, citrate plasma (diluted tenfold in 20 mM HEPES, pH 7.4, containing 0.15 M NaCl and 5 mM-amino caproic acid) was combined with bovine thrombin (final concentration 0.2 U/ml; Enzyme Research Laboratories, South Bend, Ind., USA), and Ca^2+ (10 mM), and OD350 measurements were taken every 30 seconds.

[2] = 30 μg i.n. daily, day 30 after immunization

With “tyr-ser-met-lys-lys-thr-thr-met-lys-ile-ile-pro-phe-asn-arg-leu-thr-ile-gly (YSMKKTTMKIIPFNRLTIG) (listed as Homo sapiens) [γ^377-395 peptide]” as the substance, how does the “effect on LPS-mediated microglia activation” value (primary microglia) read?
The value was “did not inhibit”.

And the “effect on LPS-mediated microglia activation” value (primary microglia; listed as γ^377-395)?
Its value is “has no effect”.

What about the “% of activated microglia in fibrinogen treated cells in the presence of blocker” value (primary microglia; M1/70 10 μg/mL or γ^377-395 peptide 200 μM daily, fibrinogen alone 71±4.9%) of the same substance?
Its value is 38.3±9.8%.

What about the “fibrinogen-induced morphologic activation of microglia (in words)” value (primary microglia; added to microglia on immobilized fibrinogen) of the same substance?
The value was “attenuated”.

And the “effect on activation state of untreated microglia” value (primary microglia; peptide 200 μM)?
Its value is “did not affect”.

And the “increase of motor functions vs control mice” value ([1]; 30 μg i.n. daily, after the first relapse on day 29)?
The value was 1.4 fold.

What about the “reduction in Mac-3 (microglia/macrophage marker) immunostaining” value [1, 2] of the same substance?
Its value is 2 fold.

And the “reduction in iNOS immunostaining” value [1, 2]?
Its value is 4.2 fold.

What about the “relapse of paralysis (clinical score)” value ([1]; 30 μg intranasally daily after first paralytic episode, n=14 vs control n=13) of the same substance?
The value was “did not show a relapse”.

And the T cell infiltration ([1]; peptide-treated vs control)?
The T cell infiltration was “no major differences”.

And the “peripheral immune cells (CD4, CD8, CD11b, CD11c, CD19, B220) in splenocytes” value (splenocytes)?
Its value is “did not reveal any differences; also recorded: no significant effect”.

And the “blocking of fibrin(ogen) binding to Mac-1 (CD11b)” value (Mac-1)?
Its value is “blocks”.

And the “in vivo blood clotting time” value (blood coagulation)?
Its value is “does not affect; also recorded: Neither dose affected”.

What about the prothrombin time (blood coagulation) of the same substance?
Its prothrombin time is “does not affect; also recorded: Neither dose affected”.
